Test results taken from ChEMBL document CHEMBL6092162, “Identification of novel and potent triazoles targeting CYP51 for antifungal: Design, synthesis, and biological study” (Eur J Med Chem, 2024).
In brackets after ≈: the same amount, converted by molar mass. Activity calls are given as the source filed them. The calls are words filed in the database; no cut-off is given here.

Tests used:
Candida albicans [1] = assay: Effect on sterol composition in Candida albicans SC5314 assessed as other sterols content at 0.0625 microg/ml measured after 16 hrs by GC-MS analysis (reference value: 1.06 %); type: functional; conditions: dose 0.0625 µg/ml
[2] = Cytotoxicity against HUVEC cells assessed as inhibition of cell growth incubated for 72 hrs by MTT assay; type: toxicity, cell-based; conditions: human
[3] = Half-life in Sprague-Dawley rat at 3 mg/kg, iv by LC-MS/MS analysis; type: ADME, organism-based; conditions: in vivo
Candida albicans [4] = assay: Effect on sterol composition in Candida albicans SC5314 assessed as ergosterol content at 0.0625 microg/ml measured after 16 hrs by GC-MS analysis (reference value: 96.96 %); type: functional; conditions: dose 0.0625 µg/ml
Candida albicans [5] = assay: Fungicidal activity fluconazole and iodiconazole resistant Candida albicans clinical isolate 17# assessed as reduction in viable colony count at 0.5 microg/ml measured within 24 hrs by time-kill kinetics assay; type: functional, organism-based; conditions: dose 0.5 µg/ml
[6] = Cytotoxicity against HEK293T cells assessed as inhibition of cell growth incubated for 72 hrs by MTT assay; type: toxicity, cell-based, HEK-293T; conditions: human
Candida albicans [7] = assay: Selectivity ratio of MFC for fungicidal activity against fluconazole and iodiconazole resistant Candida albicans clinical isolate 17# to MIC80 for antifungal activity against fluconazole and iodiconazole resistant Candida albicans clinical isolate 17#; type: functional
Candida albicans [8] = assay: Antifungal activity against fluconazole-resistant Candida albicans clinical isolate 103 assessed as inhibition of fungal growth by CLSI M27-A3 guidelines based method; type: functional
Candida albicans [9] = assay: Fungicidal activity against Candida albicans SC5314 incubated for 48 hrs by SDA plate based method; type: functional
Candida albicans [10] = assay: Selectivity ratio of MFC for fungicidal activity against Candida albicans SC5314 to MIC80 for antifungal activity against Candida albicans SC5314; type: functional
[11] = Tmax in Sprague-Dawley rat at 3 mg/kg, iv by LC-MS/MS analysis; type: ADME, organism-based; conditions: in vivo
Candida albicans [12] = assay: Antifungal activity against fluconazole-resistant Candida albicans clinical isolate 100 assessed as inhibition of fungal growth by CLSI M27-A3 guidelines based method; type: functional
Candida albicans [13] = assay: Antifungal activity against Candida albicans SC5314 assessed as inhibition of fungal growth by CLSI M27-A3 guidelines based method; type: functional
Candida albicans [14] = assay: Antifungal activity against Candida albicans GIM 2.194 assessed as inhibition of fungal growth by CLSI M27-A3 guidelines based method; type: functional
[15] = Cytotoxicity against human OVCAR-3 cells assessed as inhibition of cell growth incubated for 72 hrs by MTT assay; type: toxicity, cell-based
[16] = Selectivity index, ratio of IC50 for HEK293T cells to MIC80 for Candida albicans SC5314; type: toxicity, cell-based; conditions: human, HEK293T cells versus Candida albicans SC5314; read-out: Selectivity Index
Candida albicans [17] = assay: Effect on sterol composition in Candida albicans SC5314 assessed as eburicol content at 0.0625 microg/ml measured after 16 hrs by GC-MS analysis relative to control; type: functional; conditions: dose 0.0625 µg/ml
Nakaseomyces glabratus = assay: Antifungal activity against Candida glabrata assessed as inhibition of fungal growth by CLSI M27-A3 guidelines based method; type: functional
Candida albicans [18] = assay: Antifungal activity against fluconazole-resistant Candida albicans CaR assessed as inhibition of fungal growth by CLSI M27-A3 guidelines based method; type: functional
Candida albicans [19] = assay: Effect on sterol composition in Candida albicans SC5314 assessed as lanosterol content at 0.0625 microg/ml measured after 16 hrs by GC-MS analysis relative to control; type: functional; conditions: dose 0.0625 µg/ml
Candida albicans [20] = assay: Antifungal activity against fluconazole-resistant Candida albicans clinical isolate 632 assessed as inhibition of fungal growth by CLSI M27-A3 guidelines based method; type: functional
[21] = Cmax in Sprague-Dawley rat at 10 mg/kg, po by LC-MS/MS analysis; type: ADME, organism-based; conditions: in vivo
[22] = AUC (0 to t) in Sprague-Dawley rat at 3 mg/kg, iv by LC-MS/MS analysis; type: ADME, organism-based; conditions: in vivo
Candida albicans [23] = assay: Effect on sterol composition in Candida albicans SC5314 assessed as obtusifoliol content at 0.0625 microg/ml measured after 16 hrs by GC-MS analysis relative to control; type: functional; conditions: dose 0.0625 µg/ml
Candida albicans [24] = assay: Fungicidal activity fluconazole and iodiconazole resistant Candida albicans clinical isolate 17# assessed as reduction in viable colony count measured for 24 hrs by time-kill kinetics assay; type: functional, organism-based
[25] = Cytotoxicity against human NCI-H460 cells assessed as inhibition of cell growth incubated for 72 hrs by MTT assay; type: toxicity, cell-based
[26] = AUC (0 to t) in Sprague-Dawley rat at 10 mg/kg, po by LC-MS/MS analysis; type: ADME, organism-based; conditions: in vivo
[27] = MRT(0 to t) in Sprague-Dawley rat at 3 mg/kg, iv by LC-MS/MS analysis; type: ADME, organism-based; conditions: in vivo
[28] = Tmax in Sprague-Dawley rat at 10 mg/kg, po by LC-MS/MS analysis; type: ADME, organism-based; conditions: in vivo
Candida albicans [29] = assay: Antibiofilm activity against fluconazole-resistant Candida albicans CPCC400616 assessed as inhibition of metabolic activity of biofilm measured after 24 hrs by XTT reduction assay; type: functional
Candida albicans [30] = assay: Antifungal activity against fluconazole-resistant Candida albicans clinical isolate 901 assessed as inhibition of fungal growth by CLSI M27-A3 guidelines based method; type: functional
Candida albicans [31] = assay: Effect on sterol composition in Candida albicans SC5314 assessed as 14alpha-demethyllanosterol content at 0.0625 microg/ml measured after 16 hrs by GC-MS analysis (reference value: 1.98 %); type: functional; conditions: dose 0.0625 µg/ml
[32] = Apparent volume of distribution in Sprague-Dawley rat at 3 mg/kg, iv by LC-MS/MS analysis; type: ADME, organism-based; conditions: in vivo
Candida albicans [33] = assay: Fungicidal activity against fluconazole and iodiconazole resistant Candida albicans clinical isolate 17# incubated for 48 hrs by SDA plate based method; type: functional
Pichia kudriavzevii = assay: Antifungal activity against Candida krusei GIM 2.1 assessed as inhibition of fungal growth by CLSI M27-A3 guidelines based method; type: functional
Candida albicans [34] = assay: Antifungal activity against fluconazole-resistant Candida albicans clinical isolate 311 assessed as inhibition of fungal growth by CLSI M27-A3 guidelines based method; type: functional
[35] = Oral bioavailability in Sprague-Dawley rat at 10 mg/kg by LC-MS/MS analysis; type: ADME, organism-based; conditions: in vivo
Candida albicans [36] = assay: Antibiofilm activity against fluconazole-resistant Candida albicans CPCC400616 assessed as inhibition of metabolic activity of biofilm measured after 48 hrs by XTT reduction assay; type: functional
Candida albicans [37] = assay: Antifungal activity against fluconazole and iodiconazole resistant Candida albicans clinical isolate 17# assessed as inhibition of fungal growth by CLSI M27-A3 guidelines based method; type: functional
[38] = Half-life in Sprague-Dawley rat at 10 mg/kg, po by LC-MS/MS analysis; type: ADME, organism-based; conditions: in vivo
Candida albicans [39] = assay: Antibiofilm activity against Candida albicans CPCC400616 assessed as inhibition of morphological transformation by measuring disappearance of mycelium at 2 microg/ml incubated for 4 hrs by microscopic photograph analysis; type: functional, organism-based; conditions: dose 2.0 µg/ml
Candida parapsilosis = assay: Antifungal activity against Candida parapsilosis GIM 2.190 assessed as inhibition of fungal growth by CLSI M27-A3 guidelines based method; type: functional; conditions: Lodderomyces parapsilosis
[40] = Cmax in Sprague-Dawley rat at 3 mg/kg, iv by LC-MS/MS analysis; type: ADME, organism-based; conditions: in vivo
Candida albicans [41] = assay: Antibiofilm activity against fluconazole-resistant Candida albicans CPCC400616 assessed as inhibition of metabolic activity of biofilm measured after 6 hrs by XTT reduction assay; type: functional
[42] = MRT (0 to t) in Sprague-Dawley rat at 10 mg/kg, po by LC-MS/MS analysis; type: ADME, organism-based; conditions: in vivo
Candida tropicalis = assay: Antifungal activity against Candida tropicalis GIM 2.183 assessed as inhibition of fungal growth by CLSI M27-A3 guidelines based method; type: functional
Candida albicans [43] = assay: Antifungal activity against fluconazole-resistant Candida albicans clinical isolate 904 assessed as inhibition of fungal growth by CLSI M27-A3 guidelines based method; type: functional

CN(Cc1ccc(N2CCN(Cc3ccc(F)cc3Br)CC2)cc1)CC(O)(Cn1cncn1)c1ccc(F)cc1F (configuration not stated)
Activity (Candida albicans [1]): 4.47%
IC50 at 72 h [2]: > 10 µM
t1/2 [3]: 0.37 h
Activity (Candida albicans [4]): 1.83%
Activity (Candida albicans [5]): Active
IC50 at 72 h [6]: 4.99 µM
Selectivity ratio (Candida albicans [7]): 1
MIC80 (Candida albicans [8]): 4 mg/L (≈ 6.35 µM)
MFC (Candida albicans [9]): 0.031 mg/L (≈ 0.0492 µM)
Selectivity ratio (Candida albicans [10]): 5
Tmax [11]: 4.98 min
MIC80 (Candida albicans [12]): 2 mg/L (≈ 3.18 µM)
MIC80 (Candida albicans [13]): 0.006 mg/L (≈ 0.00953 µM)
MIC80 (Candida albicans [14]): 0.013 mg/L (≈ 0.0207 µM)
IC50 at 72 h [15]: 7.72 µM
Selectivity ratio [16]: 798
Activity (Candida albicans [17]): 65.56%
MIC80 (Nakaseomyces glabratus): 0.1 mg/L (≈ 0.159 µM)
MIC80 (Candida albicans [18]): 0.063 mg/L (≈ 0.1 µM)
Activity (Candida albicans [19]): 10.55%
MIC80 (Candida albicans [20]): 8 mg/L (≈ 12.7 µM)
Cmax [21]: 0.0106 µg/mL
AUCt [22]: 0.324 µg·h/mL
Activity (Candida albicans [23]): 14.81%
Activity (Candida albicans [24]): Dose-dependent-effect; Much More Effective Than Iodiconazole
IC50 at 72 h [25]: 5.22 µM
AUC(0-t) [26]: 0.0144 µg·h/mL
MRT last [27]: 0.478 h
Tmax [28]: 1 h
MIC50 (Candida albicans [29]): 2 mg/L (≈ 3.18 µM)
MIC80 (Candida albicans [30]): > 64 mg/L
Activity (Candida albicans [31]): 2.78%
Vz [32]: 4.89 L/kg
MFC (Candida albicans [33]): 0.063 mg/L (≈ 0.1 µM)
MIC80 (Pichia kudriavzevii): 0.1 mg/L (≈ 0.159 µM)
MIC80 (Candida albicans [34]): 8 mg/L (≈ 12.7 µM)
bioavailability [35]: 1.66%
MIC50 (Candida albicans [36]): 8 mg/L (≈ 12.7 µM)
MIC80 (Candida albicans [37]): 0.063 mg/L (≈ 0.1 µM)
half-life [38]: 1.12 h
Activity (Candida albicans [39]): Active
MIC80 (Candida parapsilosis): 0.006 mg/L (≈ 0.00953 µM)
Cmax [40]: 0.535 µg/mL
MIC50 (Candida albicans [41]): 0.5 mg/L (≈ 0.794 µM)
MRT last [42]: 1.12 h
MIC80 (Candida tropicalis): 0.006 mg/L (≈ 0.00953 µM)
MIC80 (Candida albicans [43]): 8 mg/L (≈ 12.7 µM)
